Measured values: patent US20250049953A1, “TREATMENT AND METHOD FOR INHIBITING LATE NA CURRENT” (THE TRUSTEES OF COLUMBIA UNIVERSITY IN THE CITY OF NEW YORK, priority 2022, published 2025)
No end group written: not given here.

Assays:
[1] = acute animal toxicity tests; cited from earlier work
[2] = in vivo; cited from earlier work
[3] = tested on: neuronal Na channels; details: cited from earlier work
[4] = tested on: late Na current; details: cited from earlier work
[5] = target: NaV1.5 IQ/AA mutant (human) (UniProt Q14524); assay: cell-based or functional assay
[6] = target: NaV1.5 LILA/WICW mutant (human) (UniProt Q14524); assay: cell-based or functional assay
[7] = target: NaV1.5 IFM/IQM mutant (human) (UniProt Q14524); assay: cell-based or functional assay
[8] = tested on: aMVM from non-transgenic mice; assay: Multichannel recordings of INa,L in cultured aMVM from non-transgenic mice; assay type: cell-based, mouse; details: 5 μM Forskolin following shRNA-mediated silencing of FHF2
Text: As such, we sought to determine whether “protective” FHF variants may inhibit phosphorylation-dependent INa,L. To maximally upregulate INa,L, we co-expressed wild-type NaV1.5 with either (1) the catalytic Cα subunit of protein kinase A (PKA) or (2) a constitutively-active Ca^2+/CaM dependent kinase II (CaMKIIT286D) mutant in HEK293 cells. This maneuver likely triggers runaway phosphorylation of NaV1.5 and thereby furnishes a baseline to discern any potential FHF-dependent change. As expected, we observed an ˜5 fold increase in INa,L in the presence of the PKA Cα subunit (FIGS. 3D and 3E), and a 3-fold increase with CaMKIIT286D (FIGS. 3E and 11B). […] Encouraged by these findings, we dissected the functional role of this modulation in native cardiomyocytes (FIGS. 3F and 3G).
Multichannel records were obtained in the on-cell configuration with either HEK293 cells or in aMVM as in our previous study. The pipette contained (in mM): 140 NaCl; 10 HEPES; 0.5 CaCl2; at 300 mOsm, adjusted with tetraethylammonium methanesulfonate; and pH 7.4 adjusted with tetraethylammonium hydroxide. […]
Mice ventricular myocytes were isolated by enzymatic digestion using a Langendorff perfusion apparatus as previously described. […] The efficacy of viral transduction was assessed 24-48 hours post infection.

[9] = target: T1, NaV1.5 IQ/AA mutant (Homo sapiens, UniProt Q14524, I1908A/Q1909A); assay: Multichannel recordings of late Na current, NaV1.5 IQ/AA mutant in HEK293 cells; assay type: cell-based; details: for change in INa,L: co-expression with NaV1.5 IQ/AA in HEK293 cells
T1 construct: expressed in transfected cells; host or cells: HEK293 (ATCC CRL1573)
Text: The human NaV1.5 channel corresponds to clone M77235.1 (GenBank) and is subcloned into pGW 1 vector with HindIII and SaII. To facilitate construction of channelopathic mutations in the channel carboxy-terminus, we introduced silent mutations into NaV1.5 to introduce an NruI cutting site near the channel carboxy-terminus (5329-gtggccacg-5337 into 5329-gtCgcGacg-5337). Subsequently, we used overlap-extension PCR and ligated the PCR product into NaV1.5/pGW1 using NruI and XbaI restriction sites (mutations: E1784K, S1904L, IQ/AA, and Q1909R). For generating the ΔKPQ and IFM/IQM mutations, we used overlap-extension PCR and ligated in NaV1.5/pGW1 following restriction digest using KpnI and XbaI site. For generation of NaV1.5 truncations, we PCR amplified relevant segments using a forward primer upstream of the KpnI site and a reverse primer that truncated at the appropriate location (Δ1810 and Δ1885) and included an XbaI site and ligated into NaV1.5/pW1 vector. For LILA/WICW mutations, we used overlap extension and used restriction site AgeI and NheI for subsequent ligation. All segments subjected to PCR amplification were verified by sequencing. For generating human FHF2 splice-variants, we synthesized gene fragments and ligated into pcDNA3 using BamHI/EcoRI restriction sites. Human FHF1A and FHF1B were subcloned into ECFP-N3 vector, FHF2 splice variants and FHF3 were subcloned into pcDNA3. Truncations of the FHF1A amino-terminus (NT) were generated as fusion proteins with Venus fluorescent protein in the carboxy-terminus by encoding the relevant segments as noted in FIG. 12A in the forward PCR primer and the fluorophore as the template. Following PCR amplification, each fragment was ligated into pcDNA3 following restriction digest using NheI and XhoI enzymes. Plasmid encoding PKA catalytic subunit was constructed from pDONR222-PRKACA as described previously.
HEK293 cells (ATCC CRL1573) were cultured on glass coverslips in 60-mm dishes and transfected using the Ca^2+-phosphate method as previously described. For electrophysiology experiments, we co-transfected 4-8 μg of cDNA encoding the desired channel variant with 4 μg of YFP, and 1 μg of simian virus 40 T-antigen. For experiments evaluating effect of FHF, we transfected the relevant FHF variant at 1:1 ratio as the α-subunit. For experiments considering competition between FHF1/2 isoforms, we co-transfected FHF1B and FHF2S variants at specified ratios (ranging from 1:1 to 1:10). The culture media was replaced following 4 h of transfection. Electrophysiology recordings were then performed at room temperature 1-2 days following transfection.
Multichannel records were obtained in the on-cell configuration with either HEK293 cells or in aMVM as in our previous study. The pipette contained (in mM): 140 NaCl; 10 HEPES; 0.5 CaCl2; at 300 mOsm, adjusted with tetraethylammonium methanesulfonate; and pH 7.4 adjusted with tetraethylammonium hydroxide. To zero membrane potential, the bath contained (in mM): 132 K^+-glutamate; 5 KCl; 5 NaCl; 3 MgCl; 2 EGTA; 10 glucose; 20HEPES; at 300 mOsm adjusted with glucose; and pH 7.4 adjusted with NaOH. Data were acquired at room temperature using the integrating mode of an Axopatch 200A amplifier (Axon Instruments, Molecular Devices). Patch pipettes (3-10 MΩ) were pulled from ultra-thick-walled borosilicate glass (BF200-116-10; Sutter Instruments) using horizontal puller (P-97, Sutter Instruments), fire polished with a microforge (Narishige), and coated with Sylgard™ brand silicone elastomer (Dow Corning). Elementary currents were low-pass filtered at 2 kHz with a four-pole Bessel filter and digitized at 200 kHz with an ITC-18 unit (Instrutech), controlled by custom MATLAB software (Mathworks). For each pulse, we obtained P/8 leak pulses. Leak subtraction was performed using an automated algorithm which fit the kinetics of the leak current or the capacitive transient with convex optimization with L1 regularization. […]

[10] = tested on: ischemia induced arrhythmias; details: rats; cited from earlier work
[11] = tested on: Ca^2+ channels and K^+ channels; details: cited from earlier work
[12] = target: T2, NaV1.5 S1904L mutant channel (Homo sapiens, UniProt Q14524, S1904L); assay: Multichannel recordings of late Na current, NaV1.5 S1904L; assay type: cell-based
T2 construct: expressed in transfected cells; host or cells: HEK293 (ATCC CRL1573)
Experimental: HEK293 cells (ATCC CRL1573) were cultured on glass coverslips in 60-mm dishes and transfected using the Ca^2+-phosphate method as previously described. For electrophysiology experiments, we co-transfected 4-8 μg of cDNA encoding the desired channel variant with 4 μg of YFP, and 1 μg of simian virus 40 T-antigen. […] The culture media was replaced following 4 h of transfection. Electrophysiology recordings were then performed at room temperature 1-2 days following transfection.

[13] = incubation with 10 μM ranolazine

In the case of `Cc1noc(Cn2nc3ccc(-c4ccc(OC(F)(F)F)cc4)cn3c2=O)n1` [GS-462808], the liver findings [1] is given as “caused liver lesions”.

For `FC(F)(F)Oc1ccc(-c2ccc3nnc(C(F)(F)F)n3c2)cc1` [GS-458967], the brain penetration [2] is given as “high brain penetration”, the “block of neuronal Na channels” value [3] is given as “use-dependent block” and the “potency/efficacy for blocking late Na current” value (from here on “potency/efficacy”) [4] is given as “high efficacy”.

With “FixR (FHF-inhibiting-X-region), FHF1A amino-terminal residues 1-39, expressed as a Venus fusion (peptide)” the fold reduction in INa,L (FIG. 5C) [5] was 10 to 15 fold.

With “FHF1A (human fibroblast growth factor homologous factor 1, splice variant A) (from UniProt P61328 1-243)” the time constant of the excess inactivation (single-exponential decay) [6] was 12.3 ms and the time constant of the excess inactivation (single-exponential decay) [7] was 17.8 ms.

“FHF1B (human) (from UniProt P61328 1-181)” gave an INa,L (Rpersist), multichannel recordings in HEK293 cells [5] of 4 fold, an INa,L, multichannel recordings in HEK293 cells [5] of 3 fold and a Rpersist against the ratio of FHF1B to FHF2S cDNA (ρ), half-maximal effect (ratio of FHF1B to FHF2S cDNA) [5] of 0.4.

In the case of `C=C[C@@]1(C)CC(=O)[C@]2(O)[C@@]3(C)[C@@H](O)CCC(C)(C)[C@@H]3[C@H](O)[C@H](OC(C)=O)[C@@]2(C)O1` [Forskolin], the “increase in INa,L” value [8] is reported as 20 fold.

With “12-17: FHF1A amino-terminal truncation peptide, residues 12-17, Venus fusion (QKRQAR; also: Venus fusion, end not given here; UniProt P61328 12-17, looked up, fragment)” the “change in INa,L” value [9] was “increase late channel openings”.

In the case of “1-18: FHF1A amino-terminal truncation peptide, residues 1-18, Venus fusion (MAAAIASSLIRQKRQARE; also: Venus fusion, end not given here; UniProt P61328 1-18, looked up, fragment)”, the “change in INa,L” value [9] is reported as “increase late channel openings”.

In the case of “18-39: FHF1A amino-terminal truncation peptide, residues 18-39, Venus fusion (ESNSDRVSASKRRSSPSKDGRS; also: Venus fusion, end not given here; UniProt P61328 18-39, looked up, fragment)”, the “change in INa,L” value [9] is reported as “increase late channel openings”.

In the case of “9-32: FHF1A amino-terminal truncation peptide, residues 9-32, Venus fusion (LIRQKRQARESNSDRVSASKRRSS; also: Venus fusion, end not given here; UniProt P61328 9-32, looked up, fragment)”, the “change in INa,L” value [9] is reported as “increase late channel openings”.

For `COc1ccccc1SC[C@@H](C)CN[C@@H]1COc2ccccc2SC1` [F15845], the “effect on ischemia induced arrhythmias” value [10] is given as “prevented ischemia induced arrhythmias” and the “potency/efficacy” value [4] is given as “very high efficacy”.

For `COc1ccccc1OCC(O)CN1CCN(CC(=O)Nc2c(C)cccc2C)CC1` (stereo not drawn) [ranolazine], the “interactions with other ionic currents” value [11] is given as “non-selectivity interactions with other ionic currents”, the “reduction in INa,L” value [12, 13] is given as 3 fold and the “inhibition of INa,L” value ([12]; ranolazine, FIG. 13I) is given as “inhibits INa,L”. For the same molecule, the “potency/efficacy” value [4] was “suboptimal potency”, the “reduction in INa,L” value [9, 13] was 3 fold and the “inhibition of INa,L” value ([9]; ranolazine, FIG. 13G) was “modest inhibition”.

B1: FHF1A amino terminus: entire FHF1A amino terminus expressed as a peptide (peptide)
peptide: MAAAIASSLIRQKRQARESNSDRVSASKRRSSPSKDGRSLCERHVLGVFSKVRFCSGRKRPVRRRP
modifications: left off: large carriers
notes: entire FHF1A amino terminus expressed as a peptide
For B1, the “change in INa,L” value [9] was “strongly inhibited”.
